Experiment in all cases: biochemical
What all share (format): biochemical

Experiment [1] deals with 363 human kinases (including Aurora A/B/C) (Homo sapiens, UniProt O00238). Particulars: ALK6/BMPR1B, [ATP] 10 µM; for remaining activity at 0.5 µM / remaining activity at 0.1 µM: read-out: % Enzyme Activity (relative to DMSO controls); for remaining activity at 0.1 µM: 100 nM.
Excerpt: (§1) However, the Aurora A/B selectivity ratios derived from our in vitro and in vivo data can be compared to prioritize inhibitors.
Experiment [2] concerns the target T1, 363 human kinases (including Aurora A/B/C) (Homo sapiens, UniProt O15111).
T1 sequence (O15111 1-745): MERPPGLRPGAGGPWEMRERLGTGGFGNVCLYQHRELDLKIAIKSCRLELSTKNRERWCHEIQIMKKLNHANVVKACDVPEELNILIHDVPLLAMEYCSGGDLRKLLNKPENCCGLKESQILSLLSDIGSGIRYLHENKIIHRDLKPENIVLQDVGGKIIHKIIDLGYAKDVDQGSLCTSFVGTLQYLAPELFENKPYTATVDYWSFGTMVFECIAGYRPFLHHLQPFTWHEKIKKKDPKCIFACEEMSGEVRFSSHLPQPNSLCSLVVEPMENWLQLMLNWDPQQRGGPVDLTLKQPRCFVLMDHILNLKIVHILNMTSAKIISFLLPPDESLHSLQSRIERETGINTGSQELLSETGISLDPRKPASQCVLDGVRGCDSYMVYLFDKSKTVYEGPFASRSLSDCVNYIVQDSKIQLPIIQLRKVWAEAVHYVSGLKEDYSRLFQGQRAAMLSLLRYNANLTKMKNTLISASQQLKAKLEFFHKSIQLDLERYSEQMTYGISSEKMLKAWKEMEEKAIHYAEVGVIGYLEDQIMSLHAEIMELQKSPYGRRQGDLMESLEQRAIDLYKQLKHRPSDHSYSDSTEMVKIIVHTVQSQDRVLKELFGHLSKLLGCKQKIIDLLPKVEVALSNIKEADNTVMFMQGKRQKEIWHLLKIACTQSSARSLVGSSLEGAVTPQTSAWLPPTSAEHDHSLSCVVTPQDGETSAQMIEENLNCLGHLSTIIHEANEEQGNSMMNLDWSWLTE
The note with it: IKKa/CHUK; for remaining activity at 0.5 µM / remaining activity at 0.1 µM: read-out: % Enzyme Activity (relative to DMSO controls); for remaining activity at 0.1 µM: 100 nM.
Excerpt: as §1

For experiment [3], the target named is 363 human kinases (including Aurora A/B/C) (Homo sapiens, UniProt P48729). Particulars: CK1a1, [ATP] 20 µM; for remaining activity at 0.5 µM / remaining activity at 0.1 µM: read-out: % Enzyme Activity (relative to DMSO controls); for remaining activity at 0.1 µM: 100 nM.
Chain of 363 human kinases (including Aurora A/B/C) (Homo sapiens, UniProt P48729) (P48729 whole entry): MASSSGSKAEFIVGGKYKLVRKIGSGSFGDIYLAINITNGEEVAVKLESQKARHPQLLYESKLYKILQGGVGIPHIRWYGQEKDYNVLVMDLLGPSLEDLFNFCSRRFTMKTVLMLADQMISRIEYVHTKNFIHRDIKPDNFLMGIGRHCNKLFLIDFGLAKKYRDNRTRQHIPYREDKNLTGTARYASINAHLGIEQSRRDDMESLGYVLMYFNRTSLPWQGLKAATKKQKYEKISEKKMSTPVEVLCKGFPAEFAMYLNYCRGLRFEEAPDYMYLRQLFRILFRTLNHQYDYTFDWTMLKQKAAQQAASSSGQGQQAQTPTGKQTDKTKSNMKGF
Excerpt: as §1
Experiment [4] deals with T2, 363 human kinases (including Aurora A/B/C) (Homo sapiens, UniProt Q6PHR2).
T2 sequence (Q6PHR2 1-472): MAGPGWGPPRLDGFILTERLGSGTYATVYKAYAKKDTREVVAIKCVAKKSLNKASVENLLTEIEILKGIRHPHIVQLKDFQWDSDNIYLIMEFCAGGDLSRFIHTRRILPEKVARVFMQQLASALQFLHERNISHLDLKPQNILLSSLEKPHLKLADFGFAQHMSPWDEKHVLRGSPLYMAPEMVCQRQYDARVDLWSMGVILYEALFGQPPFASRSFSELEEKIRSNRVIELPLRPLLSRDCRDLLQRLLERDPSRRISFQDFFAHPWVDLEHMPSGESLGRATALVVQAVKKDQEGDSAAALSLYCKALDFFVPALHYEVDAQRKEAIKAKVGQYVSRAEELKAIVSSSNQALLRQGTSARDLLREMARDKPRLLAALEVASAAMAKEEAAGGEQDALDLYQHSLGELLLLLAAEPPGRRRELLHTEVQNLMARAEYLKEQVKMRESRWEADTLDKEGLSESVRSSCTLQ
Particulars: ULK3; for remaining activity at 0.5 µM / remaining activity at 0.1 µM: read-out: % Enzyme Activity (relative to DMSO controls); for remaining activity at 0.1 µM: 100 nM.
Excerpt: as §1

Experiment [5] concerns the target T3, 363 human kinases (including Aurora A/B/C) (Homo sapiens, UniProt Q96L34).
T3 sequence (Q96L34 1-752): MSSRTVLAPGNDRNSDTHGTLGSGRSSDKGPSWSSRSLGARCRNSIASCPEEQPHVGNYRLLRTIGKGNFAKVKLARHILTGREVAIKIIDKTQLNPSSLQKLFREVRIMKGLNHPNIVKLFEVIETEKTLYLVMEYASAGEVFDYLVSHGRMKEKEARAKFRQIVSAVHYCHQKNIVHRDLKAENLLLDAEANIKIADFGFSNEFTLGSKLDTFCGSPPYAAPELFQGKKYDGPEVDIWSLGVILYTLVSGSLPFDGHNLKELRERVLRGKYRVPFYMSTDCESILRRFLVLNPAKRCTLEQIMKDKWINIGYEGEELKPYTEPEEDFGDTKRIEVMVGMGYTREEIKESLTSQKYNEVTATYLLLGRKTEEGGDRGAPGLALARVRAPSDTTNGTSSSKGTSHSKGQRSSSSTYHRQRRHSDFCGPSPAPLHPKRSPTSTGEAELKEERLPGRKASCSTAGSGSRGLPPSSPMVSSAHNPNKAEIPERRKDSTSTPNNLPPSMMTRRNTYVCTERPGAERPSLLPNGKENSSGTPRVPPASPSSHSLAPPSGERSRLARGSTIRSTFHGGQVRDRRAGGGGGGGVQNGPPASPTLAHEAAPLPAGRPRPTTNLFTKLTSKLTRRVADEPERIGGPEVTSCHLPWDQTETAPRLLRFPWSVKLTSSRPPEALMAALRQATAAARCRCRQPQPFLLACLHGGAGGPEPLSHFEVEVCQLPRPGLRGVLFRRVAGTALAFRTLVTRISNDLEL
The note with it: MARK4; for remaining activity at 0.5 µM / remaining activity at 0.1 µM: read-out: % Enzyme Activity (relative to DMSO controls); for remaining activity at 0.1 µM: 100 nM.
Excerpt: as §1

The structures appear in SMILES notation.

These results are taken from article PMC4685510, “A Cell Biologist’s Field Guide to Aurora Kinase Inhibitors” (Frontiers in Oncology, 2015).

Chain of 363 human kinases (including Aurora A/B/C) (Homo sapiens, UniProt O00238) (O00238 14-502): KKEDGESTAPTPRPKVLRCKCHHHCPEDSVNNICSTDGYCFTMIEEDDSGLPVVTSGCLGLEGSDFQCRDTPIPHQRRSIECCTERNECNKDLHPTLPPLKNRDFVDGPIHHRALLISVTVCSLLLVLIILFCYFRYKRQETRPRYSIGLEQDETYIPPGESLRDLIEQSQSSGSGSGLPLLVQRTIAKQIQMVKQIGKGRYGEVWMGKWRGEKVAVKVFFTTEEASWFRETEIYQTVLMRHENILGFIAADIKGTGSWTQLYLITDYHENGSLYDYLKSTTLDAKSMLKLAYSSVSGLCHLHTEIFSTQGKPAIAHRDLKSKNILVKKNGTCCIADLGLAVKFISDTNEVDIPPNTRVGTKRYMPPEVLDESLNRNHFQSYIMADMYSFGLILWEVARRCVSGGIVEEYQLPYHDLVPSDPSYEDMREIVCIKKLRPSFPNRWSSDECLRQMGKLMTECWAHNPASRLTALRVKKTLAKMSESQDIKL

Turning to `O=C(c1cccc(Cl)c1F)N1CCN(Cc2cccc(Nc3nccs3)n2)CC1` [MK-8745], the “% Enzyme Activity (relative to DMSO controls)” value in experiment [1] (500 nM) was found to be 91.78%; in experiment [2] (500 nM), 107.82%; in experiment [3] (500 nM), 99.17%; in experiment [4] (500 nM), 93.40%; in experiment [5] (500 nM) it was 102.33%. The remaining activity at 0.5 µM in experiment [1] (500 nM) was 92%; in experiment [2] (500 nM), 114%; in experiment [3] (500 nM) it was 99.8%; in experiment [4] (500 nM) it was 94.4%; in experiment [5] (500 nM), 105%.

Turning to `CCn1cc(-c2ccnc3[nH]c(-c4cccc(CN(C)C)c4)cc23)c(-c2ccc(NC(=O)N(C)C)cc2)n1` [GSK1070916], the remaining activity at 0.1 µM in experiment [1] is 89.2%; in experiment [2], 126%; in experiment [3], 103%; in experiment [4], 93.8%; in experiment [5], 111%.

Regarding `O=C(O)[C@]1(Cc2cccc(Nc3nccs3)n2)CC[C@@H](Oc2cccc(Cl)c2F)CC1` [MK-5108], the remaining activity at 0.1 µM came to 101% in experiment [1]; 118% in experiment [2]; 89% in experiment [3]; 89.6% in experiment [4]; 106% in experiment [5]. In addition, the remaining activity at 0.5 µM in experiment [1] (500 nM) amounted to 46.2%; in experiment [2] (500 nM) it was 113%; in experiment [3] (500 nM) it was 101%; in experiment [4] (500 nM), 62.1%; in experiment [5] (500 nM), 101%.
